# Starred links: 1 amine or outer side, 2 acyl side, 3 side chain; linkers in the order of their positions; H or OH if unused. Positions of bridges follow the written chain, without caps; N, C: chain ends. Non-standard residues stand in square brackets, D forms with d. Residues, ends and D or L forms follow the SMILES beside them. *: point of attachment. hPhe(3-Cl-4-CF3) = N[C@@H](CCc1ccc(C(F)(F)F)c(Cl)c1)C(=O)O; hPhe(3-F,4-CF3) = N[C@@H](CCc1ccc(C(F)(F)F)c(F)c1)C(=O)O; 3Oxa8azabicyclo(3.2.1)octane = C1CC2COCC1N2*; NMePhe(4-Me) = CN[C@@H](Cc1ccc(C)cc1)C(=O)O; X3 = CN([C@@H](CCc1ccncc1)C(=O)[*:2])[*:1]; NMeAla(cPent) = CN[C@@H](CC1CCCC1)C(=O)O; NMeGly(cPent) = CN[C@H](C(=O)O)C1CCCC1; Ala(cPent) = N[C@@H](CC1CCCC1)C(=O)O; NMeCha = CN[C@@H](CC1CCCCC1)C(=O)O; NMeAhp(2) = CCCCC[C@H](NC)C(=O)O; NMeCba = CN[C@@H](CC1CCC1)C(=O)O; NMeChg = CN[C@H](C(=O)O)C1CCCCC1; Gly(cBu) = N[C@H](C(=O)O)C1CCC1; NMeD = CN[C@@H](CC(=O)O)C(=O)O; NMeL = CN[C@@H](CC(C)C)C(=O)O; NMeNva = CCC[C@H](NC)C(=O)O; NMeV = CN[C@H](C(=O)O)C(C)C; NMeAbu = CC[C@H](NC)C(=O)O; Morpholide = C1CN(*)CCO1; NMeA = CN[C@@H](C)C(=O)O; Piperidide = C1CCN(*)CC1; Pyrrolidide = C1CCN(*)C1; Ac5c = NC1(C(=O)O)CCCC1; Aze = O=C(O)[C@@H]1CCN1; Ac3c = NC1(C(=O)O)CC1; Sar = CNCC(=O)O
# Assays:
# [1] = tested on: Human pancreatic cancer cell line AsPC-1; experiment: Measurement of AsPC-1 cell growth inhibition (AsPC-1 CGI); format: cell-based; settings: 96 h
# Method in brief: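 AsPC-1 cells in 15% FBS RPMI-1640 were exposed to test compound for 96 hours at 37° C, with CellTiter-Glo as endpoint.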
# [2] = target: T1, Kras and SOS1 (biotin-tagged human Kras loaded with GDP, His-tagged human SOS1) (Homo sapiens, UniProt P01116, G12D); experiment: Protein-protein interaction inhibition between Kras and SOS1 (KrasGl2D-SOS PPI) using AlphaScreen; format: binding; settings: AlphaScreen; biotin-tagged human Kras loaded with GDP, His-tagged human SOS1; read-out: KRAS G12D-SOS PPI IC50
# T1 construct: made in house; host or cells: E. coli (stated for Kras only)
# Method in brief: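 Kras was produced in E. coli, purified, then loaded with GDP. It was paired via streptavidin acceptor beads with His-SOS1 held on nickel donor beads, and proximity signal at 520-620 nm was read after 680 nm illumination.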
# T1 sequence (P01116 1-188 isoform P01116-2 G12D): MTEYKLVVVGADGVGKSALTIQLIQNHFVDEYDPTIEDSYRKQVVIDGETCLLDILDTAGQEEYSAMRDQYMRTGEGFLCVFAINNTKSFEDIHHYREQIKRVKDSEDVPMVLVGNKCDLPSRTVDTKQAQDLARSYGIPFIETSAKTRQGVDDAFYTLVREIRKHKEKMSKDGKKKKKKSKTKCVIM
Compound,IC50 [1] [µM],IC50 [2] [µM]
CC[C@H](C)[C@@H]1NC(=O)[C@H](C2CCCC2)N(C)C(=O)C[C@@H](C(=O)N2CCCCC2)N(C)C(=O)[C@H](C2CCCCC2)N(C)C(=O)C2(CCCC2)NC(=O)[C@@H]2CCCN2C(=O)[C@H](CCc2ccc(C(F)(F)F)c(Cl)c2)NC(=O)CN(C)C(=O)[C@H](CC2CCCCC2)N(C)C(=O)CN(C)C(=O)CN(C)C1=O [Compound 1835] ([NMeGly(cPent)]I[Sar][Sar][NMeCha][Sar][hPhe(3-Cl-4-CF3)]P[Ac5c][NMeChg][NMeD]-Piperidide; lactam N-11),0.05 to 0.1,0.0011
CC(C)C[C@H]1C(=O)N[C@@H](CC2CCCC2)C(=O)N(C)CC(=O)N(C)CC(=O)N(C)[C@@H](CC2CCCCC2)C(=O)N(C)CC(=O)N[C@@H](CCc2ccc(C(F)(F)F)c(Cl)c2)C(=O)N2CCC[C@H]2C(=O)NC2(CCCC2)C(=O)N(C)[C@@H](C2CCCCC2)C(=O)N(C)[C@H](C(=O)N2CCCCC2)CC(=O)N1C [Compound 1838] ([NMeL][Ala(cPent)][Sar][Sar][NMeCha][Sar][hPhe(3-Cl-4-CF3)]P[Ac5c][NMeChg][NMeD]-Piperidide; lactam N-11),0.1 to 0.5,0.0026
CC[C@H](C)[C@@H]1NC(=O)[C@H](CC(C)C)N(C)C(=O)C[C@@H](C(=O)N2CCCC2)N(C)C(=O)[C@H](C2CCCC2)N(C)C(=O)C2(CCCC2)NC(=O)[C@@H]2CCCN2C(=O)[C@H](CCc2ccc(C(F)(F)F)c(Cl)c2)NC(=O)CN(C)C(=O)[C@H](Cc2ccc(C)cc2)N(C)C(=O)[C@@H]2CCN2C(=O)[C@H](C)N(C)C1=O [Compound 1840] ([NMeL]I[NMeA][Aze][NMePhe(4-Me)][Sar][hPhe(3-Cl-4-CF3)]P[Ac5c][NMeGly(cPent)][NMeD]-Pyrrolidide; lactam N-11),0.02 to 0.05,0.0012
CC[C@H](C)[C@@H]1NC(=O)[C@H](CC(C)C)N(C)C(=O)C[C@@H](C(=O)N2CCCCC2)N(C)C(=O)[C@H](C2CCCCC2)N(C)C(=O)C2(CC2)NC(=O)[C@@H]2CCCN2C(=O)[C@H](CCc2ccc(C(F)(F)F)c(Cl)c2)NC(=O)CN(C)C(=O)[C@H](CC2CCCCC2)N(C)C(=O)CN(C)C(=O)CN(C)C1=O [Compound 1845] ([NMeL]I[Sar][Sar][NMeCha][Sar][hPhe(3-Cl-4-CF3)]P[Ac3c][NMeChg][NMeD]-Piperidide; lactam N-11),0.1 to 0.5,0.00084
CCCCC[C@H]1C(=O)N(C)CC(=O)N[C@@H](CCc2ccc(C(F)(F)F)c(Cl)c2)C(=O)N2CCC[C@H]2C(=O)NC2(CCCC2)C(=O)N(C)[C@@H](C2CCCCC2)C(=O)N(C)[C@H](C(=O)N2CCCCC2)CC(=O)N(C)[C@@H](CC(C)C)C(=O)N[C@@H]([C@@H](C)CC)C(=O)N(C)CC(=O)N(C)CC(=O)N1C [Compound 1846] ([NMeL]I[Sar][Sar][NMeAhp(2)][Sar][hPhe(3-Cl-4-CF3)]P[Ac5c][NMeChg][NMeD]-Piperidide; lactam N-11),0.1 to 0.5,0.0011
CC[C@H](C)[C@@H]1NC(=O)[C@H](C)N(C)C(=O)C[C@@H](C(=O)N2CCOCC2)N(C)C(=O)[C@H](C2CCCCC2)N(C)C(=O)C2(CCCC2)NC(=O)[C@@H]2CCCN2C(=O)[C@H](CCc2ccc(C(F)(F)F)c(Cl)c2)NC(=O)CN(C)C(=O)[C@H](CC2CCCCC2)N(C)C(=O)CN(C)C(=O)CN(C)C1=O [Compound 1847] ([NMeA]I[Sar][Sar][NMeCha][Sar][hPhe(3-Cl-4-CF3)]P[Ac5c][NMeChg][NMeD]-Morpholide; lactam N-11),0.1 to 0.5,0.00063
CC[C@H](C)[C@@H]1NC(=O)[C@H](CC(C)C)N(C)C(=O)C[C@@H](C(=O)N2CCCCC2)N(C)C(=O)[C@H](C2CCCC2)N(C)C(=O)C2(CCCC2)NC(=O)[C@@H]2CCCN2C(=O)[C@H](CCc2ccc(C(F)(F)F)c(Cl)c2)NC(=O)CN(C)C(=O)[C@H](Cc2ccc(C)cc2)N(C)C(=O)CN(C)C(=O)CN(C)C1=O [Compound 1850] ([NMeL]I[Sar][Sar][NMePhe(4-Me)][Sar][hPhe(3-Cl-4-CF3)]P[Ac5c][NMeGly(cPent)][NMeD]-Piperidide; lactam N-11),0.02 to 0.05,0.0006
CC[C@H](C)[C@@H]1NC(=O)[C@H](CC(C)C)N(C)C(=O)C[C@@H](C(=O)N2CCCCC2)N(C)C(=O)[C@H](CC2CCC2)N(C)C(=O)C2(CCCC2)NC(=O)[C@@H]2CCCN2C(=O)[C@H](CCc2ccc(C(F)(F)F)c(Cl)c2)NC(=O)CN(C)C(=O)[C@H](CC2CCCCC2)N(C)C(=O)[C@@H]2CCN2C(=O)[C@H](C)N(C)C1=O [Compound 1860] ([NMeL]I[NMeA][Aze][NMeCha][Sar][hPhe(3-Cl-4-CF3)]P[Ac5c][NMeCba][NMeD]-Piperidide; lactam N-11),0.1 to 0.5,0.011
CC[C@H](C)[C@@H]1NC(=O)[C@H](CC(C)C)N(C)C(=O)C[C@@H](C(=O)N(C)C)N(C)C(=O)[C@H](C(C)C)N(C)C(=O)C2(CCCC2)NC(=O)[C@@H]2CCCN2C(=O)[C@H](CCc2ccc(C(F)(F)F)c(Cl)c2)NC(=O)CN(C)C(=O)[C@H](Cc2ccc(C)cc2)N(C)C(=O)CN(C)C(=O)CN(C)C1=O [Compound 1867] ([NMeL]I[Sar][Sar][NMePhe(4-Me)][Sar][hPhe(3-Cl-4-CF3)]P[Ac5c][NMeV][NMeD]-NMe2; lactam N-11),0.1 to 0.5,0.00073
CC[C@H](C)[C@@H]1NC(=O)[C@H](CC(C)C)N(C)C(=O)C[C@@H](C(=O)N2C3CCC2COC3)N(C)C(=O)[C@H](C2CCCCC2)N(C)C(=O)C2(CCCC2)NC(=O)[C@@H]2CCCN2C(=O)[C@H](CCc2ccc(C(F)(F)F)c(Cl)c2)NC(=O)CN(C)C(=O)[C@H](Cc2ccc(C)cc2)N(C)C(=O)CN(C)C(=O)CN(C)C1=O [Compound 1869] ([NMeL]I[Sar][Sar][NMePhe(4-Me)][Sar][hPhe(3-Cl-4-CF3)]P[Ac5c][NMeChg][NMeD]-{3Oxa8azabicyclo(3.2.1)octane}; lactam N-11),0.05 to 0.1,0.00076
"CC[C@H](C)[C@@H]1NC(=O)[C@H](CC(C)C)N(C)C(=O)C[C@@H](C(=O)N2CCCC2)N(C)C(=O)[C@H](C2CCCCC2)N(C)C(=O)C2(CCCC2)NC(=O)[C@@H]2CCCN2C(=O)[C@H](CCc2ccc(C(F)(F)F)c(F)c2)NC(=O)CN(C)C(=O)[C@H](CC2CCCCC2)N(C)C(=O)CN(C)C(=O)CN(C)C1=O [Compound 1870] ([NMeL]I[Sar][Sar][NMeCha][Sar][hPhe(3-F,4-CF3)]P[Ac5c][NMeChg][NMeD]-Pyrrolidide; lactam N-11)",0.02 to 0.05,0.00074
CCC[C@H]1C(=O)N[C@@H]([C@@H](C)CC)C(=O)N(C)CC(=O)N(C)CC(=O)N(C)[C@@H](Cc2ccc(C)cc2)C(=O)N(C)CC(=O)N[C@@H](CCc2ccc(C(F)(F)F)c(Cl)c2)C(=O)N2CCC[C@H]2C(=O)NC2(CCCC2)C(=O)N(C)[C@@H](C2CCCCC2)C(=O)N(C)[C@H](C(=O)N2CCOCC2)CC(=O)N1C [Compound 1871] ([NMeNva]I[Sar][Sar][NMePhe(4-Me)][Sar][hPhe(3-Cl-4-CF3)]P[Ac5c][NMeChg][NMeD]-Morpholide; lactam N-11),0.02 to 0.05,0.00048
CC[C@H](C)[C@@H]1NC(=O)[C@H](CC(C)C)N(C)C(=O)C[C@@H](C(=O)N2CCOCC2)N(C)C(=O)[C@H](C2CCCCC2)N(C)C(=O)C2(CCCC2)NC(=O)[C@@H]2CCCN2C(=O)[C@H](CCc2ccc(C(F)(F)F)c(Cl)c2)NC(=O)CN(C)C(=O)[C@H](Cc2ccc(C)cc2)N(C)C(=O)CN(C)C(=O)CN(C)C1=O [Compound 1872] ([NMeL]I[Sar][Sar][NMePhe(4-Me)][Sar][hPhe(3-Cl-4-CF3)]P[Ac5c][NMeChg][NMeD]-Morpholide; lactam N-11),0.02 to 0.05,0.00065
CC[C@H](C)[C@@H]1NC(=O)[C@H](CC)N(C)C(=O)C[C@@H](C(=O)N2C3CCC2COC3)N(C)C(=O)[C@H](C2CCCCC2)N(C)C(=O)C2(CCCC2)NC(=O)[C@@H]2CCCN2C(=O)[C@H](CCc2ccc(C(F)(F)F)c(Cl)c2)NC(=O)CN(C)C(=O)[C@H](CC2CCCC2)N(C)C(=O)CN(C)C(=O)CN(C)C1=O [Compound 1877] ([NMeAbu]I[Sar][Sar][NMeAla(cPent)][Sar][hPhe(3-Cl-4-CF3)]P[Ac5c][NMeChg][NMeD]-{3Oxa8azabicyclo(3.2.1)octane}; lactam N-11),0.1 to 0.5,0.00086
CC(C)C[C@H]1C(=O)N[C@@H](C2CCC2)C(=O)N(C)CC(=O)N(C)CC(=O)N(C)[C@@H](CC2CCCCC2)C(=O)N(C)CC(=O)N[C@@H](CCc2ccc(C(F)(F)F)c(Cl)c2)C(=O)N2CCC[C@H]2C(=O)NC2(CCCC2)C(=O)N(C)[C@@H](C2CCCCC2)C(=O)N(C)[C@H](C(=O)N2C3CCC2COC3)CC(=O)N1C [Compound 1879] ([NMeL][Gly(cBu)][Sar][Sar][NMeCha][Sar][hPhe(3-Cl-4-CF3)]P[Ac5c][NMeChg][NMeD]-{3Oxa8azabicyclo(3.2.1)octane}; lactam N-11),0.05 to 0.1,0.00066
CC[C@H](C)[C@@H]1NC(=O)[C@H](CC(C)C)N(C)C(=O)C[C@@H](C(=O)N(C)C)N(C)C(=O)[C@H](C2CCCC2)N(C)C(=O)C2(CCCC2)NC(=O)[C@H](CCc2ccncc2)N(C)C(=O)[C@H](CCc2ccc(C(F)(F)F)c(Cl)c2)NC(=O)CN(C)C(=O)[C@H](CC2CCCCC2)N(C)C(=O)[C@@H]2CCN2C(=O)[C@H](C)N(C)C1=O [Compound 1881] ([NMeL]I[NMeA][Aze][NMeCha][Sar][hPhe(3-Cl-4-CF3)][X3][Ac5c][NMeGly(cPent)][NMeD]-NMe2; lactam N-11),0.05 to 0.1,0.0014

# Source: patent US12371454B2, “Cyclic peptide compound having Kras inhibitory action” (priority 2019, dated 2025)
